We go through five molecules from ChEMBL document CHEMBL1150977, “A quantitative analysis of kinase inhibitor selectivity” (Nat Biotechnol, 2008).

Usually pKd stands for −log10 of the Kd, conventionally taken in molar units. A low value points to a large Kd.

The target in experiment [1] is Cyclin-dependent kinase 14 (Homo sapiens, UniProt O94921).
Experiment [2] has as its target T1, Serine/threonine-protein kinase NLK (Homo sapiens, UniProt Q9UBE8).
T1 sequence (Q9UBE8 whole entry): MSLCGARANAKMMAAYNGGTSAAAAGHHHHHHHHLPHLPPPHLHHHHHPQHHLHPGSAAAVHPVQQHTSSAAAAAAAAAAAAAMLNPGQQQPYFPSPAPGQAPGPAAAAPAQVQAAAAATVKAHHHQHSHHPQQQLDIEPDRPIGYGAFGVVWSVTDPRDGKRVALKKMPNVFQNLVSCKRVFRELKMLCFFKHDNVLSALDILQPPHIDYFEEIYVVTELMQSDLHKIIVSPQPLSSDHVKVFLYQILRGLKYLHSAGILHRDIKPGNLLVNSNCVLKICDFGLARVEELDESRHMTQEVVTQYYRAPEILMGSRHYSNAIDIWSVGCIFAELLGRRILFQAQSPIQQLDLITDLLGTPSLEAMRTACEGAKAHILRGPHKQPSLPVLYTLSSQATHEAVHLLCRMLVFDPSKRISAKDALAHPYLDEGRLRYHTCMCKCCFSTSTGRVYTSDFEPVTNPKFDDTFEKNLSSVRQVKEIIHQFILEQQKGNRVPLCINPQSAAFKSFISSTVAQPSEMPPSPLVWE

In experiment [3] the target is Serine/threonine-protein kinase Nek7 (Homo sapiens, UniProt Q8TDX7).
Sequence of Serine/threonine-protein kinase Nek7 (Q8TDX7 whole entry): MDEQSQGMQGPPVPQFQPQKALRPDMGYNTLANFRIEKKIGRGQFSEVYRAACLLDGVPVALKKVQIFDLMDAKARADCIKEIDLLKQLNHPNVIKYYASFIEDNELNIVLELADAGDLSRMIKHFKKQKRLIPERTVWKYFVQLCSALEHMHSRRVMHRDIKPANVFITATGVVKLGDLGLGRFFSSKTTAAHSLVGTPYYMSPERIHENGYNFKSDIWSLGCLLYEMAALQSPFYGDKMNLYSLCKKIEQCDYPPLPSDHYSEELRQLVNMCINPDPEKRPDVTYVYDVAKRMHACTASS
In experiment [4] the target is T2, Serine/threonine-protein kinase DCLK1 (Homo sapiens, UniProt O15075).
T2 sequence (O15075 whole entry): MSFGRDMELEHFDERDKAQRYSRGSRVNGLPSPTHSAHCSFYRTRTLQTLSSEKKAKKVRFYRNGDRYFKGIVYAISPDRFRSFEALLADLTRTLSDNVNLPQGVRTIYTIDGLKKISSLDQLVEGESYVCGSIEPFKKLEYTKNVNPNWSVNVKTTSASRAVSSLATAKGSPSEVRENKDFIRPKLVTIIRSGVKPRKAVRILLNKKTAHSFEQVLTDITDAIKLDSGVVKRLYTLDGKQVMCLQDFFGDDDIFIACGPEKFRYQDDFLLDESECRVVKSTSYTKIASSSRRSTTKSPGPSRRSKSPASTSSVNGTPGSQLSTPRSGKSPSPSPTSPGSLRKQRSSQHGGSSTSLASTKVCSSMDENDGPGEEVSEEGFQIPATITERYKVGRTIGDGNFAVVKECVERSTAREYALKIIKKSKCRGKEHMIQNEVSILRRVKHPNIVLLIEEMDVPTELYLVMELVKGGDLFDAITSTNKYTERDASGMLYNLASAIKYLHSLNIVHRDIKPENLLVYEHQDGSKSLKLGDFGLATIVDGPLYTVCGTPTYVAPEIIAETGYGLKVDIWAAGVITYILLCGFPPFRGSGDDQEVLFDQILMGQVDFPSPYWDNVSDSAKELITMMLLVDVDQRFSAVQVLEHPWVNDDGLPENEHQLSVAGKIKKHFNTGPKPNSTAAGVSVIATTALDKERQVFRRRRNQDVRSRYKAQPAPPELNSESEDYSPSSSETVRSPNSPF

For experiment [5], the target named is T3, Serine/threonine-protein kinase RIO3 (Homo sapiens, UniProt O14730).
T3 sequence (O14730 whole entry): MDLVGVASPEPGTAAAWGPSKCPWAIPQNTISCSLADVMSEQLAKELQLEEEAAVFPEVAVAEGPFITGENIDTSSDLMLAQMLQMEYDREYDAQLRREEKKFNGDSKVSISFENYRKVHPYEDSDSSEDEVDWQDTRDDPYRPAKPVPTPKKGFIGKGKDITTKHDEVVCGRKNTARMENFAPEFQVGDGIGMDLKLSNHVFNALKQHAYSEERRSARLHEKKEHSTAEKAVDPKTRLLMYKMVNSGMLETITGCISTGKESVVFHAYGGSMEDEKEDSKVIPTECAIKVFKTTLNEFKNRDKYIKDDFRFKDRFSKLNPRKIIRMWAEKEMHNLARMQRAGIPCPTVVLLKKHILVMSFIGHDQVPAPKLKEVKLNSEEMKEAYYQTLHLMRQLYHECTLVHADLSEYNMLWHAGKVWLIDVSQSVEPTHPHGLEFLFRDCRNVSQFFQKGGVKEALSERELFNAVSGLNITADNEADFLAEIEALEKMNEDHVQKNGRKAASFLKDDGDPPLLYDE

Experiment [6] has as its target Serine/threonine-protein kinase PAK 4 (Homo sapiens, UniProt O96013).
Experiment [7] concerns the target Fibroblast growth factor receptor 1 (Homo sapiens, UniProt P11362).
The target in experiment [8] is T4, Ankyrin repeat and protein kinase domain-containing protein 1 (Homo sapiens, UniProt Q8NFD2).
T4 sequence (Q8NFD2 whole entry): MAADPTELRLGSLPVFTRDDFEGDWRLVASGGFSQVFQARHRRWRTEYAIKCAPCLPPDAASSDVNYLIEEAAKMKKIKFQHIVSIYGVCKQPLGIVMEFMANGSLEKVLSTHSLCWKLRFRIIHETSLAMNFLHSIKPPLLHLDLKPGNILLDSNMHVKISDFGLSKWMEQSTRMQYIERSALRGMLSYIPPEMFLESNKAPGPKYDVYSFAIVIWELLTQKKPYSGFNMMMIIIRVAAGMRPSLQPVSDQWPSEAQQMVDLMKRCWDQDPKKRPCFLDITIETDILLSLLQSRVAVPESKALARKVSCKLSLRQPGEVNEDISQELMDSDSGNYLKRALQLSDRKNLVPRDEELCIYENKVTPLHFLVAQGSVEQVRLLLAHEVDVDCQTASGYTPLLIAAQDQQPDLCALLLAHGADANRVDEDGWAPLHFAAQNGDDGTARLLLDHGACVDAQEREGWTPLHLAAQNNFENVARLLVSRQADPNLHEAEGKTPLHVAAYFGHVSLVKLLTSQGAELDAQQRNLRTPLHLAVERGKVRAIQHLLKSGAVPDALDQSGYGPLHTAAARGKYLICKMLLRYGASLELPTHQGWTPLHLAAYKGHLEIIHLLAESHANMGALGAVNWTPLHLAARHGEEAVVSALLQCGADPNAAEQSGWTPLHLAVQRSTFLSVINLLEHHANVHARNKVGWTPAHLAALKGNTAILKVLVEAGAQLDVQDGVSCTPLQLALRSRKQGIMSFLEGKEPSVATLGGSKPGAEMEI

The target of experiment [9] is Casein kinase I isoform gamma-1 (Homo sapiens, UniProt Q9HCP0).
Sequence of Casein kinase I isoform gamma-1 (Q9HCP0 whole entry, canonical isoform): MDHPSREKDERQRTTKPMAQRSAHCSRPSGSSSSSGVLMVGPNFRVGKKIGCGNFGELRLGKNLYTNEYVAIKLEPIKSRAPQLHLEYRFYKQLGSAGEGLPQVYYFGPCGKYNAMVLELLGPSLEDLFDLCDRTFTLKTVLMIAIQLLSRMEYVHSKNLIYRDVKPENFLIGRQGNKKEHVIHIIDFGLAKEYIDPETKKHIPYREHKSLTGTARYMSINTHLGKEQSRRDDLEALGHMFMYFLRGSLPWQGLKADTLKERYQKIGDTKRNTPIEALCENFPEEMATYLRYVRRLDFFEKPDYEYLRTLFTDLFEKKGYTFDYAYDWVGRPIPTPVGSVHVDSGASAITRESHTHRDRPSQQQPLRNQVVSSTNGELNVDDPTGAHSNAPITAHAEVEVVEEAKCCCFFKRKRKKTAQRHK
The target of experiment [10] is MAP kinase-interacting serine/threonine-protein kinase 1 (Homo sapiens, UniProt Q9BUB5).
Sequence of MAP kinase-interacting serine/threonine-protein kinase 1 (Q9BUB5 whole entry): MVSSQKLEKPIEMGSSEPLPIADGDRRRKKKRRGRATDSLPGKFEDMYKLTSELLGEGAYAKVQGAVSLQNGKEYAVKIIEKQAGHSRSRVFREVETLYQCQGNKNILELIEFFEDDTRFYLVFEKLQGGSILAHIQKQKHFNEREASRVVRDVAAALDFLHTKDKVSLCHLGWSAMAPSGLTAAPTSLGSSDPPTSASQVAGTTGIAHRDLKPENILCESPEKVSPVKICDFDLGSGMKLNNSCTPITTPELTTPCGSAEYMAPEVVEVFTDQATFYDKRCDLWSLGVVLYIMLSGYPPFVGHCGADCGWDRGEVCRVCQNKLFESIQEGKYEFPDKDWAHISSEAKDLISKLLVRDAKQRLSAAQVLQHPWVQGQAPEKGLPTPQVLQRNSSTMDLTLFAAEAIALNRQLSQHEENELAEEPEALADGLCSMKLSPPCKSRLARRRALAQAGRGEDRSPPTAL
In experiment [11] the target is Receptor-type tyrosine-protein kinase FLT3 (Homo sapiens, UniProt P36888, N841I).

pKd: −log10 of the molar value.

Sequence of Serine/threonine-protein kinase PAK 4 (O96013 whole entry): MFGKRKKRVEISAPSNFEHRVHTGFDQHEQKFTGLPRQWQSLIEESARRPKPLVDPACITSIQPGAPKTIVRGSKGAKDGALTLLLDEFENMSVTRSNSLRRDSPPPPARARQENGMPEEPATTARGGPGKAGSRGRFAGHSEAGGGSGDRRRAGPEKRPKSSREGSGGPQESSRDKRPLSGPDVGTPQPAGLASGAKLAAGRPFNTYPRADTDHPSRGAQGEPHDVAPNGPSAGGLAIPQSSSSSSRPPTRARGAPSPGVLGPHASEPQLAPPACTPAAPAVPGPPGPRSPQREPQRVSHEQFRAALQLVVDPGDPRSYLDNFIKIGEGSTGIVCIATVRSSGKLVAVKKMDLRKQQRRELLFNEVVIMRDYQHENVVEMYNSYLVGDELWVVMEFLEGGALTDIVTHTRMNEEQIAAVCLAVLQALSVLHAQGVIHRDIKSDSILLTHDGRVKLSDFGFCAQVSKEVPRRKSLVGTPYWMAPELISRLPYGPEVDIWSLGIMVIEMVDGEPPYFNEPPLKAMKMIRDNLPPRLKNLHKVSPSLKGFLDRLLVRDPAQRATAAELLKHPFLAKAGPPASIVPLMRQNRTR
Sequence of Fibroblast growth factor receptor 1 (P11362 whole entry, the tested form may be a part): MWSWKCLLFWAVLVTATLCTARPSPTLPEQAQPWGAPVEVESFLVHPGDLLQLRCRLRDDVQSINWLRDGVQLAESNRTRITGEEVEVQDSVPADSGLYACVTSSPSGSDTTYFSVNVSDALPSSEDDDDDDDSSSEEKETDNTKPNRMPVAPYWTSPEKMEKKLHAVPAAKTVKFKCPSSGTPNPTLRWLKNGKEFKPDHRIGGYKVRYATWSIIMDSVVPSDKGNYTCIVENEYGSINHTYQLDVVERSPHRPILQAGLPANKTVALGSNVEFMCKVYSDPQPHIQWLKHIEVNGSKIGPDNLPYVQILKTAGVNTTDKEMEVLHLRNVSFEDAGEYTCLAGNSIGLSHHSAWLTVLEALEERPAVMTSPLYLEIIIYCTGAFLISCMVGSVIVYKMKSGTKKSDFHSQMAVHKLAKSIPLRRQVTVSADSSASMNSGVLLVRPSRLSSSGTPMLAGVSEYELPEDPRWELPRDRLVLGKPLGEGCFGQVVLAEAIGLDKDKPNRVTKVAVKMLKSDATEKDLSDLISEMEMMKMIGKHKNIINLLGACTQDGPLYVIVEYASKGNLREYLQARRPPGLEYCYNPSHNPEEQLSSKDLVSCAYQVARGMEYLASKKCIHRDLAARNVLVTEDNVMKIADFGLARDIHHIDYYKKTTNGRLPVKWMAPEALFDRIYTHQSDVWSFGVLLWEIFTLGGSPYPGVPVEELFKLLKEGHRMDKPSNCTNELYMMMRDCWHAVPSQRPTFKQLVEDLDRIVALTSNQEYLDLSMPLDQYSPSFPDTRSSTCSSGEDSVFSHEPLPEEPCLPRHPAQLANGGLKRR
Sequence of Cyclin-dependent kinase 14 (O94921 whole entry): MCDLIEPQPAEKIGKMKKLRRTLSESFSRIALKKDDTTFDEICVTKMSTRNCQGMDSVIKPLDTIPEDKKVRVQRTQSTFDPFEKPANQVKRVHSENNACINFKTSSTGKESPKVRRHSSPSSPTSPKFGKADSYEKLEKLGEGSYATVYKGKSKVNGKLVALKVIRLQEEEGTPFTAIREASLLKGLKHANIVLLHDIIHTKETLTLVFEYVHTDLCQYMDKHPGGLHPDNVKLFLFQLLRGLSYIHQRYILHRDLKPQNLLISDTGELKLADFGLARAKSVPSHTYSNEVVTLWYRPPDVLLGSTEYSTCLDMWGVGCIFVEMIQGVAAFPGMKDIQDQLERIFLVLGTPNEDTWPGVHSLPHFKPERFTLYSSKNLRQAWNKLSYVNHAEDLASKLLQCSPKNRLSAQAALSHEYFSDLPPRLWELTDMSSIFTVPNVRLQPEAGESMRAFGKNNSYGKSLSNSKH

With `COCC(=O)NC/C=C/c1ccc2ncnc(Nc3ccc(Oc4ccc(C)nc4)c(C)c3)c2c1` [CP-724714], the pKd in [1], in [2], in experiment [3], in experiment [4], in experiment [5] and in experiment [6] was less than 5.00 throughout. Moreover, the pKd in experiment [7], in [8], in [9], in [10] and in [11] was less than 5.00 in each case.
`Nc1nc(Nc2ccc(S(N)(=O)=O)cc2)nn1C(=O)c1c(F)cccc1F` [JNJ-7706621]: the negative-log Kd (pKd) in experiment [1] was 5.44; in experiment [2] it was less than 5.00; in experiment [3] it was less than 5.00; in experiment [5] it was 5.92; in [10] it was less than 5.00.
As for `CCOc1cc2ncc(C#N)c(Nc3ccc(F)c(Cl)c3)c2cc1NC(=O)/C=C/CN(C)C` [PELITINIB], the pKd in experiment [1], in [2], in experiment [3], in [4], in [5] and in [6] was less than 5.00 in each case. Further, the pKd in experiment [7] is less than 5.00; in [8] it was less than 5.00; in [9], less than 5.00; in experiment [10], less than 5.00; in experiment [11], 5.70.
In the case of `Oc1ccc(-c2nc(-c3ccncc3)c(-c3ccc(F)cc3)[nH]2)cc1` [SB-202190], the pKd was less than 5.00 in [1]; 7.55 in experiment [2]; less than 5.00 in [3]; less than 5.00 in [4]; less than 5.00 in [5]; less than 5.00 in [6]. Further, the negative logarithm of the Kd (pKd) in experiment [7], in experiment [8], in [9], in [10] and in experiment [11] was less than 5.00 each time.
Take `NC(=O)c1ccc(-c2nc(-c3ccc4c(c3)OCO4)c(-c3ccccn3)[nH]2)cc1` [SB-431542]: the pKd in experiment [1], in experiment [2], in experiment [3], in experiment [4], in [5] and in [6] was less than 5.00 in each case. The pKd in experiment [7], in experiment [8] and in experiment [10] was less than 5.00 throughout.
